According to publication PMC12022909, “A Multicomponent Reaction-Based Platform Opens New Avenues in Aryl Hydrocarbon Receptor Modulation” (ACS Central Science, 2025):

Molecular target: T1, AhR (Homo sapiens, UniProt P35869)
T1 construct: Degradation of endogenous AhR was further confirmed via Western blotting and global proteomics measurements in cells treated with 12b; host or cells: MCF7
T1 sequence (P35869 11-848): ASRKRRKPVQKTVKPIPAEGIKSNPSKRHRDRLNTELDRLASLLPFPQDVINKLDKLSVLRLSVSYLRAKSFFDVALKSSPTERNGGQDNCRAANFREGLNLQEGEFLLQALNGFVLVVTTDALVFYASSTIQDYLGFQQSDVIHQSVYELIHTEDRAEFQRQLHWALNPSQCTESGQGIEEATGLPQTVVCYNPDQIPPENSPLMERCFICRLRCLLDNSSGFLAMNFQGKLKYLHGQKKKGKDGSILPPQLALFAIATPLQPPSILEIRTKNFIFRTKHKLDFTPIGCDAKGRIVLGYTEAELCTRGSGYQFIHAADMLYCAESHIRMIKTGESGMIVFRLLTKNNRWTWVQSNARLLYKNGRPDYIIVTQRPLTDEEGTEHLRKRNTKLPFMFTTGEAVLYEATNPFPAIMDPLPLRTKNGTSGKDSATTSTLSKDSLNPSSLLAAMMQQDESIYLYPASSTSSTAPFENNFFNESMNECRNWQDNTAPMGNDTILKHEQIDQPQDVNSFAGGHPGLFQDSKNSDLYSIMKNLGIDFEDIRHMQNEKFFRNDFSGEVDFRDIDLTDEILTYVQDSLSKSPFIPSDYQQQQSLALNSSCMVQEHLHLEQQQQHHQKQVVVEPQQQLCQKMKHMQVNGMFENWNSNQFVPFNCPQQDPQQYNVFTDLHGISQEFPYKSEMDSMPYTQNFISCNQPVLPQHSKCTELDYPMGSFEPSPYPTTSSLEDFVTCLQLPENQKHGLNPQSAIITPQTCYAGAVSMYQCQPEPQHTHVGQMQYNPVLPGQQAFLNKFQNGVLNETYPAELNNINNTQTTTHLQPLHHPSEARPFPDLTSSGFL
Assay: Western blot of AhR in MCF7 cells
Format: cell-based
Details: 10 µM, 5 h
Description: Figure S30. Agonists induce degradation of AhR.
12b, 12c, and 12d at a concentration of 10 µM for 5h. The numbers on the Blot indicate the signal intensities of the bands relative to the Tubulin bands, normalized to DMSO treatment as quantified with Empiria Studio. […]
Cell culture and treatment […]
MCF7 cells were purchased from ATCC and grown in DMEM with 10% FCS and 1% penicillin/ streptomycin. […]
All cells were cultivated at 37 °C in a humidified atmosphere containing 5% CO 2.
Tapinarof (MedChemExpress, Monmouth Junction, NJ), benzo[a]pyrene (Sigma-Aldrich, Taufkirchen, Germany), TCDD (Amchro, Hattersheim am Main, Germany) and all compounds synthesized in this study were dissolved in dimethyl sulfoxide (DMSO; Roth). […]
Quantitative real-time PCR […]
• CYP1A1: […] (forward (5'>3')); […] (reverse (5'>3')).
• CYP1B1: […] (forward (5'>3')); […] (reverse (5'>3')).
• CCL26: […] (forward (5'>3')); […] (reverse (5'>3')).
• IL-19: […] (forward (5'>3')); […] (reverse (5'>3')).
• CXCL1: […] (forward (5'>3')); […] (reverse (5'>3')).
• β-actin: […] (forward (5'>3')); […] (reverse (5'>3')). […]
The assay was carried out as described earlier. Luciferase activity was normalized to protein content.
SDS-PAGE/Western blot analysis
Cells were lysed in RIPA buffer on ice and subsequently centrifuged for 15 min at 4 °C at maximum speed. Protein samples were separated by 10% and 12% SDS -polyacrylamide gel electrophoresis and blotted onto PVDF (GE Healthcare, Freiburg, Germany) or Nitrocellulose (BioRad #17 04158) membranes. Blots were blocked with 5% skim milk or bovine serum albumin in TBS -Tween-20 (0.1%) for or Intercept® (TBS) Blocking Buffer (LI -COR Biosciences) 1 h at room temperature and subsequently incubated overnight at 4 °C with primary antibodies. Blots were washed and then incubated for 1 h with a 1:5000 dilution of HRP -conjugated secondary antibodies in 5% bovine serum albumin in TBS -Tween-20 (0.1%) or anti-Mouse (Licor, IRDye® 680RD Goat anti -Mouse IgG, 1:10k dilution) or anti-Rabbit secondary antibody (Licor, IRDye® Goat anti -Rabbit IgG, 1:10k dilution) at room temperature. Bands were visualized using WesternBright ECL HRP substrate (Advansta, San Jose, CA) and a C -DiGit Western Blot Scanner (LI -COR Biotechnology, Lincoln, NE) or a Licor Odyssey CLx imager. Primary antibodies used in this study are as follows. AhR (Cat.No. 83200; Cell Signaling Technology, Leiden, The Netherlands). AIP (Cat.No. sc-59730; Santa Cruz Biotechnology, Dallas, TX). Cul4B (Cat.No. abx004735; Abbexa, Houston, TX). GAPDH (Cat.No. 2118; Cell Signaling Technology). Vinculin (Cat.No. 13901, Cell Signaling Technology). α - Tubulin (Abcam, ab7291, 1:10k dilution).
HaCaT-EV and HaCaT-shAhR cells were treated with either vehicle (DMSO) or 10 µM 12d for 0.5 h and 1 h. […]

AhR receptor proteolysis: induced receptor proteolysis
Compound: Cc1[nH]c2ccccc2c1-c1c2[nH]c3ccccc3c2cc2[nH]c3ccccc3c12 [5e]
